Columns and labels:
Assay in all cases: Herbicidal effect test by soil treatment
Assay type in all cases: in vivo
corn (Zea mays) = details: crop plant, three weeks after spraying
Description: (§1) In a plastic box of 15 cm length, 22 cm width and 6 cm depth, there was placed a sterilized dilvial soil, and seeds of barnyardgrass (Echinochloa crusgalli), large crabgrass (Digitaria adscendens), annual sedge (Cyperus microiria), black nightshade (Solanum nigrum L.), hairly galinosoga (Galinsoga ciliat), rorippa ssp. (Rorippa atrovirens), rice (Oryza sativa), corn (Zea mays), wheat (Triticum aestivum), soybean (Glysine max) and cotton (Gossypium herbaceum) were sown mixedly. After covering soil to about 1 cm over the seeds, herbicides were sprayed evenly on the soil surface to predetermined proportions of the active ingredient In spraying, the wettable powder, emulsifiable concentrate, dry flowable or flowable in the above formulation examples were diluted with water and sprayed over the entire surface by means of a small sprayer. Three weeks after spraying, the herbicidal effect on crop plants including rice, corn, wheat, soybean, cotton and various kinds of weeds were examined according to the judgement criteria shown below. Judgement criteria
(§2) The above growth control rates are determined by measuring the top fresh weights of the treated plants and those of the non-treated plants, and culculated from the following formula: [formula]

soybean (Glysine max) = details: crop plant, three weeks after spraying
Description: as §1, §2

[1] = tested on: wheat (Triticum aestivum); details: crop plant, three weeks after spraying
Description: as §1, §2

[2] = tested on: hairly galinosoga (Galinsoga ciliat); details: three weeks after spraying
Description: as §1, §2

[3] = tested on: annual sedge (Cyperus microiria); details: three weeks after spraying
Description: as §1, §2

rice (Oryza sativa) = details: crop plant, three weeks after spraying
Description: as §1, §2

[4] = tested on: large crabgrass (Digitaria adscendens); details: three weeks after spraying
Description: as §1, §2

[5] = tested on: cotton (Gossypium herbaceum); details: crop plant, three weeks after spraying
Description: as §1, §2

[6] = tested on: rorippa ssp. (Rorippa atrovirens); details: three weeks after spraying
Description: as §1, §2

[7] = tested on: barnyardgrass (Echinochloa crusgalli); details: three weeks after spraying
Description: as §1, §2

[8] = tested on: black nightshade (Solanum nigrum L.); details: three weeks after spraying
Description: as §1, §2

Compound: CC1CC(=O)N(c2cc3c(cc2F)OCC(=O)N3)C(=O)C1 [1-22]
- herbicidal effect, T (Zea mays) (corn (Zea mays); application amount 1.6 g/a): 0 (Growth control rates of less than 5% (substantially no effect))
- herbicidal effect, S (Glysine max) (soybean (Glysine max); application amount 1.6 g/a): 0 (Growth control rates of less than 5% (substantially no effect))
- herbicidal effect, W (Triticum vulgare) ([1]; application amount 1.6 g/a): 0 (Growth control rates of less than 5% (substantially no effect))
- herbicidal effect, D (Galinsoga ciliat) ([2]; application amount 1.6 g/a): 5 (Growth control,rates of more than 90% (almost completely withered))
- herbicidal effect, K (Cyperus microiria) ([3]; application amount 1.6 g/a): 5 (Growth control,rates of more than 90% (almost completely withered))
- herbicidal effect, R (Oryza sativa) (rice (Oryza sativa); application amount 1.6 g/a): 0 (Growth control rates of less than 5% (substantially no effect))
- herbicidal effect, M (Digitaria adscendens) ([4]; application amount 1.6 g/a): 5 (Growth control,rates of more than 90% (almost completely withered))
- herbicidal effect, C (Gossypium herbaceum) ([5]; application amount 1.6 g/a): 0 (Growth control rates of less than 5% (substantially no effect))
- herbicidal effect, I (Rorippa indica) ([6]; application amount 1.6 g/a): 5 (Growth control,rates of more than 90% (almost completely withered))
- herbicidal effect, N (Echinochloa crusgalli) ([7]; application amount 1.6 g/a): 5 (Growth control,rates of more than 90% (almost completely withered))
- herbicidal effect, H (Solanum nigrum L.) ([8]; application amount 1.6 g/a): 5 (Growth control,rates of more than 90% (almost completely withered))

Compound: C#CCN1C(=O)COc2cc(F)c(N3C(=O)CC(C)CC3=O)cc21 [1-23]
- herbicidal effect, T (Zea mays) (corn (Zea mays); application amount 0.4 g/a): 4 (Growth control rates of 70 to 90%)
- herbicidal effect, T (Zea mays) (corn (Zea mays); application amount 0.8 g/a): 5 (Growth control,rates of more than 90% (almost completely withered))
- herbicidal effect, T (Zea mays) (corn (Zea mays); application amount 1.6 g/a): 5 (Growth control,rates of more than 90% (almost completely withered))
- herbicidal effect, S (Glysine max) (soybean (Glysine max); application amount 0.4 g/a): 0 (Growth control rates of less than 5% (substantially no effect))
- herbicidal effect, S (Glysine max) (soybean (Glysine max); application amount 0.8 g/a): 1 (Growth control rates of 5 to 20%)
- herbicidal effect, S (Glysine max) (soybean (Glysine max); application amount 1.6 g/a): 2 (Growth control rates of 20 to 40%)
- herbicidal effect, W (Triticum vulgare) ([1]; application amount 0.4 g/a): 4 (Growth control rates of 70 to 90%)
- herbicidal effect, W (Triticum vulgare) ([1]; application amount 0.8 g/a): 5 (Growth control,rates of more than 90% (almost completely withered))
- herbicidal effect, W (Triticum vulgare) ([1]; application amount 1.6 g/a): 5 (Growth control,rates of more than 90% (almost completely withered))
- herbicidal effect, D (Galinsoga ciliat) ([2]; application amount 0.4 g/a): 5 (Growth control,rates of more than 90% (almost completely withered))
- herbicidal effect, D (Galinsoga ciliat) ([2]; application amount 0.8 g/a): 5 (Growth control,rates of more than 90% (almost completely withered))
- herbicidal effect, D (Galinsoga ciliat) ([2]; application amount 1.6 g/a): 5 (Growth control,rates of more than 90% (almost completely withered))
- herbicidal effect, K (Cyperus microiria) ([3]; application amount 0.4 g/a): 5 (Growth control,rates of more than 90% (almost completely withered))
- herbicidal effect, K (Cyperus microiria) ([3]; application amount 0.8 g/a): 5 (Growth control,rates of more than 90% (almost completely withered))
- herbicidal effect, K (Cyperus microiria) ([3]; application amount 1.6 g/a): 5 (Growth control,rates of more than 90% (almost completely withered))
- herbicidal effect, R (Oryza sativa) (rice (Oryza sativa); application amount 0.4 g/a): 2 (Growth control rates of 20 to 40%)
- herbicidal effect, R (Oryza sativa) (rice (Oryza sativa); application amount 0.8 g/a): 3 (Growth control rates of 40 to 70%)
- herbicidal effect, R (Oryza sativa) (rice (Oryza sativa); application amount 1.6 g/a): 5 (Growth control,rates of more than 90% (almost completely withered))
- herbicidal effect, M (Digitaria adscendens) ([4]; application amount 0.4 g/a): 5 (Growth control,rates of more than 90% (almost completely withered))
- herbicidal effect, M (Digitaria adscendens) ([4]; application amount 0.8 g/a): 5 (Growth control,rates of more than 90% (almost completely withered))
- herbicidal effect, M (Digitaria adscendens) ([4]; application amount 1.6 g/a): 5 (Growth control,rates of more than 90% (almost completely withered))
- herbicidal effect, C (Gossypium herbaceum) ([5]; application amount 0.4 g/a): 2 (Growth control rates of 20 to 40%)
- herbicidal effect, C (Gossypium herbaceum) ([5]; application amount 0.8 g/a): 3 (Growth control rates of 40 to 70%)
- herbicidal effect, C (Gossypium herbaceum) ([5]; application amount 1.6 g/a): 4 (Growth control rates of 70 to 90%)
- herbicidal effect, I (Rorippa indica) ([6]; application amount 0.4 g/a): 5 (Growth control,rates of more than 90% (almost completely withered))
- herbicidal effect, I (Rorippa indica) ([6]; application amount 0.8 g/a): 5 (Growth control,rates of more than 90% (almost completely withered))
- herbicidal effect, I (Rorippa indica) ([6]; application amount 1.6 g/a): 5 (Growth control,rates of more than 90% (almost completely withered))
- herbicidal effect, N (Echinochloa crusgalli) ([7]; application amount 0.4 g/a): 5 (Growth control,rates of more than 90% (almost completely withered))
- herbicidal effect, N (Echinochloa crusgalli) ([7]; application amount 0.8 g/a): 5 (Growth control,rates of more than 90% (almost completely withered))
- herbicidal effect, N (Echinochloa crusgalli) ([7]; application amount 1.6 g/a): 5 (Growth control,rates of more than 90% (almost completely withered))
- herbicidal effect, H (Solanum nigrum L.) ([8]; application amount 0.4 g/a): 5 (Growth control,rates of more than 90% (almost completely withered))
- herbicidal effect, H (Solanum nigrum L.) ([8]; application amount 0.8 g/a): 5 (Growth control,rates of more than 90% (almost completely withered))
- herbicidal effect, H (Solanum nigrum L.) ([8]; application amount 1.6 g/a): 5 (Growth control,rates of more than 90% (almost completely withered))

Compound: O=C1COc2cc(F)c(N3C(=O)CC(C(F)(F)F)CC3=O)cc2N1 [1-25]
- herbicidal effect, T (Zea mays) (corn (Zea mays); application amount 1.6 g/a): 0 (Growth control rates of less than 5% (substantially no effect))
- herbicidal effect, S (Glysine max) (soybean (Glysine max); application amount 1.6 g/a): 0 (Growth control rates of less than 5% (substantially no effect))
- herbicidal effect, W (Triticum vulgare) ([1]; application amount 1.6 g/a): 0 (Growth control rates of less than 5% (substantially no effect))
- herbicidal effect, D (Galinsoga ciliat) ([2]; application amount 1.6 g/a): 5 (Growth control,rates of more than 90% (almost completely withered))
- herbicidal effect, K (Cyperus microiria) ([3]; application amount 1.6 g/a): 5 (Growth control,rates of more than 90% (almost completely withered))
- herbicidal effect, R (Oryza sativa) (rice (Oryza sativa); application amount 1.6 g/a): 1 (Growth control rates of 5 to 20%)
- herbicidal effect, M (Digitaria adscendens) ([4]; application amount 1.6 g/a): 5 (Growth control,rates of more than 90% (almost completely withered))
- herbicidal effect, C (Gossypium herbaceum) ([5]; application amount 1.6 g/a): 1 (Growth control rates of 5 to 20%)
- herbicidal effect, I (Rorippa indica) ([6]; application amount 1.6 g/a): 5 (Growth control,rates of more than 90% (almost completely withered))
- herbicidal effect, N (Echinochloa crusgalli) ([7]; application amount 1.6 g/a): 5 (Growth control,rates of more than 90% (almost completely withered))
- herbicidal effect, H (Solanum nigrum L.) ([8]; application amount 1.6 g/a): 5 (Growth control,rates of more than 90% (almost completely withered))

Reference: patent EP0454444A1, “Glutarimide derivatives and herbicides” (NISSAN CHEMICAL INDUSTRIES LTD., priority 1990, dated 1991)
